In patent publication US20160249841A1, “[…] ELECTROENCEPHALOGRAPHIC OSCILLATIONS” (Galenea Corp., priority 2012, published 2016):

How the values were obtained:
[1] = system: Coloboma mice; conditions: low doses; cited from earlier work
[2] = system: wild-type mice; assay: EEG time-frequency maps of mean power during onset of exploratory activity, wild-type mice treated with PCP; assay type: in vivo, mouse; conditions: wild-type mice treated with PCP versus untreated, FIG. 10
Excerpt: Time-frequency maps were produced of mean power for untreated wild-type mice and mice treated with PCP. A signature in EEG oscillations observed in untreated mice was absent following treatment with PCP. This signature was characterized by peaks in early beta (20-30 Hz) activity, gammaLow (30-40 Hz) and gammaHi (80-100) Hz activity.

[3] = system: CNhetKO mice; assay: EEG oscillations in PFC during onset of exploratory activity in novel object recognition task, CNhetKO mice; assay type: in vivo, mouse; conditions: 5 mg/kg subcutaneously
Excerpt: Alterations in electroencephalographic oscillations (e.g., shifts in power) recorded from the prefrontal cortex (PFC) of mice could result from engagement of executive functions necessary for attending to and actively exploring a new environment; processes unrelated to executive function may also be involved. An integrated system was set up that combined automated real-time behavioral analysis (Topscan, CleverSys, Inc., Reston, Va.) together with multichannel electrophysiology equipment (MC_Rack, MultiChannel Systems, GmbH, Reutlingen, Germany) to analyze PFC activity during different phases of a novel object recognition (NOR) task in mice that were well habituated to the test apparatus.
EEGs were recorded from control and calcineurin heterozygous knock-out (CNhetKO) subjects during performance of a novel-object recognition task. […] During each phase, the behavior of each subject was monitored in real time and synchronized to recorded EEG oscillations (Topscan, CleverSys Inc.). […]
The area under the curve was computed from spectrograms to quantify power in different frequency bands [Theta (4-12 Hz) and GammaHI (65-90 Hz)] of the EEG oscillations. […]
The effects of D4 agonist PD168077 on the EEG oscillations observed during onset of the exploratory activity in CNhetKO mice were evaluated. […] Time-frequency maps of baseline conditions (no D4 agonist) and treatment conditions were evaluated.

[4] = system: CNhetKO mice; assay: Novel object recognition task performance, CNhetKO mice; assay type: in vivo, mouse
Experimental: EEGs were recorded from control and calcineurin heterozygous knock-out (CNhetKO) subjects during performance of a novel-object recognition task. Control and CNhetKO mice were exposed to two identical objects during a 10 min sample phase. After a 24 hour delay period, subjects were exposed to a familiar object and a novel object. During each phase, the behavior of each subject was monitored in real time and synchronized to recorded EEG oscillations (Topscan, CleverSys Inc.). As depicted in FIG. 4, an exploratory activity occurred when a subject's nose was orientated towards an object and was within a 2 cm radius surrounding the object for at least 200 msec, while the subject's center of mass (‘*’) was outside of 2 cm radius. […]
The effects of D4 agonist PD168077 on the EEG oscillations observed during onset of the exploratory activity in CNhetKO mice were evaluated. CNhetKO subjects were treated with PD 168077 (5 mg/kg) subcutaneously and EEG oscillations associated with exploratory activity in a novel object recognition task were analyzed. Exploratory activity in the presence of novel objects and familiar objects was analyzed for up to 90 min post-injection. Time-frequency maps of baseline conditions (no D4 agonist) and treatment conditions were evaluated.

C[C@H](N)Cc1ccccc1 [D-amphetamine]
Hyperkinesis [1]: ameliorated

c1ccc(C2(N3CCCCC3)CCCCC2)cc1 [PCP, Phencyclidine]
Signature in EEG oscillations (peaks in early beta 20-30 Hz, gammaLow 30-40 Hz, gammaHi 80-100 Hz) [2]: absent

Cc1cccc(C(=O)NCN2CCN(c3ccccc3C#N)CC2)c1 [PD 168077]
Signature of EEG oscillation observed during onset of the exploratory activity (time-frequency maps) ([3]; CNhetKO mice, up to 90 min post-injection, versus baseline (no D4 agonist)): restored the signature of EEG oscillation | Gamma responses (GammaHi 65-90 Hz EEG power) in PFC elicited by object exploration ([3]; CNhetKO subjects, analyzed up to 90 min post-injection, FIG. 6): transiently restored normal Gamma responses | Time spent exploring novel objects versus familiar objects ([4]; CNhetKO mice, versus cyclodextrin control, FIG. 8B): significantly more time exploring novel objects compared with familiar objects | Performance in the novel object recognition cognitive paradigm ([4]; CNhetKO subjects, 5 mg/kg s.c. 30 min prior to familiarization phase and again 30 min prior to test phase after 24 hr): essentially completely restored performance
